For CNCc1cc(F)c(S(C)(=O)=O)cc1Oc1ccc(Cl)cc1F [Example 52, [2-(4-Chloro-2-fluorophenoxy)-5-fluoro-4-methanesulfonylbenzyl]methylamine], which melting point is on record?
Its melting point is 184 to 186 °C.

With CNCc1cc(C)c(Cl)cc1Oc1ccc(Cl)cc1F [Example 43, [4-Chloro-2-(4-chloro-2-fluorophenoxy)-5-methylbenzyl]methylamine] as the molecule, how does the melting point read?
Its melting point is 212 to 214 °C.

Which melting point does the source give for CNCc1cc(C)c([S+](C)[O-])cc1Oc1ccc(Cl)c(C)c1C (centres unmarked) [Example 19, [2-(4-Chloro-2,3-dimethylphenoxy)-4-methanesulfinyl-5-methylbenzyl]methylamine] here?
The melting point was 220 to 222 °C.

Which melting point does the source give for CNCc1cc(C)c(C)cc1Oc1ccc(Cl)cc1F [Example 45, [2-(4-Chloro-2-fluorophenoxy)-4,5-dimethylbenzyl]methylamine] here?
The melting point was 134 to 136 °C.

For CNCc1ccc(C)cc1Oc1ccc(Cl)cc1F [Example 47, [2-(4-Chloro-2-fluorophenoxy)-4-methylbenzyl]methylamine], which melting point is on record?
Its melting point is 198 to 220 °C.

For CNCc1ccc(S(C)(=O)=O)cc1Oc1ccc2c(c1)CCC2 [Example 58, [2-(Indan-5-yloxy)-4-methanesulfonylbenzyl]methylamine], which melting point is on record?
The melting point was 88 to 90 °C.

For CNCc1ccc(Cl)cc1Oc1ccc(F)c2c1CCC2 [Example 57, [4-Chloro-2-(7-fluoroindan-4-yloxy)benzyl]methylamine], which melting point is on record?
Its melting point is 204 to 206 °C.

With CCSc1ccc(CNC)c(Oc2ccc(Cl)cc2)c1 [Example 60, [2-(4-Chlorophenoxy)-4-ethylsulfanylbenzyl]methylamine] as the molecule, how does the melting point read?
Its melting point is 158 to 160 °C.

With CNC(C)c1cc(F)c(Cl)cc1Oc1ccc(Cl)cc1F (centres unmarked) [Example 41, {1-[4-Chloro-2-(4-chloro-2-fluorophenoxy)-5-fluorophenyl]ethyl}-methylamine] as the molecule, how does the melting point read?
The melting point was 178 to 180 °C.

Which melting point does the source give for CNCc1ccc(Br)cc1Oc1ccc(Cl)cc1F [Example 50, [4-Bromo-2-(4-chloro-2-fluorophenoxy)benzyl]methylamine] here?
The melting point was 204 to 206 °C.

With CNCc1ccc(OC)cc1Oc1ccc(Cl)cc1F [Example 46, [2-(4-Chloro-2-fluorophenoxy)-4-methoxy-benzyl]methylamine] as the molecule, how does the melting point read?
Its melting point is 186 to 188 °C.
